Results published in patent publication US20070135509A1, “Indolone compounds useful to treat cognitive impairment” (priority 2005, published 2007).

Experiments:
C57BL/6 mice [1] = experiment: Contextual fear conditioning (contextual memory, freezing to context); type: in vivo; details: for 24 h contextual memory (freezing) / freezing to context 24 hr after training: mean±SEM; for 24 h contextual memory (freezing): controls 22.3±3.2%; for freezing to context 24 hr after training: controls 24.5±3.2%
From the text: Contextual Memory. Contextual memory is a form of Pavlovian fear conditioning in which a naïve mouse is placed into a novel chamber (context) containing distinct visual, olfactory and tactile cues. After a few seconds of acclimation, the mouse receives a brief, mild electric shock to its feet. From this negative experience, the mouse will remember for months that that chamber is dangerous. When placed back into the same context at some later time after training, the mouse's natural response to danger is to “freeze,” sitting stone still for many seconds. This is similar to what happens to humans when they experience fear. The percent of time during an observation period that the mouse spends frozen represents a quantitative measure (memory score) of its memory of the context.
(§1) Subjects. Young-adult (10-12 weeks old) C57B1/6 male mice (Taconic, N.Y.) were used. The mice were housed (5 mice) in standard laboratory cages and maintained on a 12:12 light-dark cycle. The experiments were always conducted during the light phase of the cycle. The day before the initiation of the experiment, mice were housed single in individual cages and maintained so until the end of the experiment. With the exception of testing times, the mice had liberal access to food and water. The experiments were conducted in accordance with Animal Welfare Assurance #A3280-01. Animals were maintained in accordance with the Animal Welfare Act and Department of Health and Human Services Guide.
Contextual Conditioning Training and Testing. To assess contextual memory, a standardized contextual fear conditioning task originally developed for evaluation of memory in cyclic AMP response element binding protein (“CREB”) knock-out mice was used (Bourtchouladze et al., 1994). On the training day, the mouse was placed into the conditioning chamber (Med Associates, Inc., VA) for 2 minutes before the onset of unconditioned stimulus (US), 0.5 mA, of 2 second foot shock. The US was repeated two times with a 1 min inter-trial interval between shocks. Training was performed by automated software package (Med Associates, Inc., VA). After the last training trial, the mice were left in the conditioning chamber for another 30 seconds and were then placed back in their home cages. 24 hours after training, the mouse was placed into the same training chamber and contextual memory was assessed by scoring freezing behavior (‘freezing’ serves as memory score). Freezing was defined as the complete lack of movement in intervals of 5 seconds (Kim et al., 1993; Phillips & LeDoux, 1992; Bourtchouladze et al., 1994; 1998; Abel et al., 1997). Total testing time lasted 3 minutes. After each experimental subject, the experimental apparatus was thoroughly cleaned with 75% ethanol, water, dried, and ventilated for a few minutes.
Contextual Conditioning Data Analysis. All experiments were designed and performed in a balanced fashion, meaning that (i) for each experimental condition (e.g. a specific dose-effect) we used an equal number of experimental and control mice; (ii) each experimental condition was replicated 2-3 independent times, and replicate days were added to generate final number of subjects. The proceeding of each experiment was filmed. In each experiment, the experimenter was unaware (blind) to the treatment of the subjects during training and testing. Data were analyzed by Student's unpaired t test using a software package (Statwiew 5.0.1; SAS Institute, Inc). All values in the text and figures are expressed as mean±SEM.
Drug Compound Administration. Compound 2 was freshly prepared from a stock solution (10 mg/ml DMSO), which was maintained at 4° C. Compound 2 was dissolved in a suspension of 5% DMSO and 95% CMC at 2% in water and administered intraperitoneally (I.P.) at doses 5 mg/kg; 10 mg/kg and 30 mg/kg 20 min before training or at 1 mg/kg and 30 mg/kg orally 60 min before training. Control animals received vehicle alone (5% DMSO and 95% CMC at 2% in water). […]

C57BL/6 mice [2] = experiment: Object recognition (novel object recognition memory); type: in vivo; details: for Discrimination Index (DI), 24 hour object recognition: mean±SEM, vehicle -10.2±4
From the text: Object Recognition. […] This task relies on the natural curiosity of rodents to explore novel objects in their environments more than familiar ones. Obviously, for an object to be “familiar,” the animal must have attended to it before and remembered that experience.
During training, a mouse is presented with two identical, novel objects. Mice explore them equally by approaching, sniffing and crawling over them. During testing, the animal is presented with the training object and a second, novel one. Memory of the training object renders it familiar to the animal, and it then spends more time exploring the new novel object rather than the familiar one (Bourtchouladze t al., 2003). […] Consistent with these findings, rats with the PFC lesions show poor working memory when they are required to discriminate between familiar and novel objects (Mitchell, 1998).
as §1
Object Recognition Training and Testing. […]
Object Recognition Data Analysis. […] Types were reviewed by a blinded observer and the following behavioral parameters were determined: time of exploration of an each object; the total time of exploration of the objects; number of approaches to the objects; and time (latency) to first approach to an object. The discrimination index—memory score—was determined as described previously (Ennaceur et al., 1997, Bourtchouladze et al., 2003). […] All values in the text and figures are expressed as mean±SEM. […]

O=C1C(=Nc2cccc(C(F)(F)F)c2)c2ccccc2N1c1ccccc1 [Compound 2, 1-PHENYL-3-[[3-(TRIFLUOROMETHYL)PHENYL]IMINO]-1,3-DIHYDRO-2H-INDOL-2-ONE]
24 h contextual memory (freezing) (C57BL/6 mice [1]; 1 mg/kg oral 60 min before training, p<0.01): 36.4±3.9%
freezing to context 24 hr after training (C57BL/6 mice [1]; 5 mg/kg I.P. 20 min before training, p<0.05): 40.3±4.7%
Effects on contextual memory in mice (FIG. 1) (C57BL/6 mice [1]; 5 mg/kg, 10 mg/kg and 30 mg/kg i.p., 24 hours after training): significantly facilitated freezing to context
freezing to context 24 hr after training (C57BL/6 mice [1]; 10 mg/kg I.P. 20 min before training, p<0.01): 51.4±9.1%
freezing to context 24 hr after training (C57BL/6 mice [1]; 30 mg/kg I.P. 20 min before training, p<0.001): 49.1±3.7%
24 h contextual memory (freezing) (C57BL/6 mice [1]; 30 mg/kg oral 60 min before training, p<0.05): 34.1±4.3%
Effects on contextual memory in mice (FIG. 2) (C57BL/6 mice [1]; single dose of 1 mg/kg or 30 mg/kg orally, 24 hr): significantly enhanced 24 hr contextual memory
Effect on object recognition memory in mice (FIG. 3) (C57BL/6 mice [2]; 1 mg/kg and 5 mg/kg i.p. twenty (20) minutes before training, C57BL/6 mice): ameliorated long-term memory deficit
Discrimination Index (DI), 24 hour object recognition (C57BL/6 mice [2]; 1 mg/kg i.p. 20 minutes before 15-minute training, p<0.05): 5.1±6
Discrimination Index (DI), 24 hour object recognition (C57BL/6 mice [2]; 5 mg/kg i.p. 20 minutes before 15-minute training, p<0.0005): 18.8±6.6
